{"source": "patent US9492470B2", "about": "“Use of HMGA-targeted phosphorothioate DNA aptamers to suppress carcinogenic activity and increase sensitivity to chemotherapy agents in human cancer cells” (MIAMI UNIVERSITY, priority 2012, dated 2016)", "key": {"[1]": {"tested_on": "Miapaca-2 cells", "experiment": "Cell growth with gemcitabine treatment after sDNA transfection, Miapaca-2", "type": "cell-based, Human", "details": "96 hours"}, "[2]": {"tested_on": "Miapaca-2 cells", "experiment": "Cell viability (crystal violet) after sDNA transfection, Miapaca-2", "type": "cell-based, Human", "details": "for cells dead compared to UT: versus untransfected (UT) cells; for Fold change in numbers of viable cells between TC and sDNA transfected cells (in parentheses) / Fold change in numbers of viable cells between UT and transfected cells: 96 h after transfection", "experimental": "The absorbance was measured at 570 nm in quadruplicate. All data from control cells were combined and averaged."}, "[3]": {"tested_on": "AsPC-1 cells", "experiment": "Cell growth with gemcitabine treatment after sDNA transfection, AsPC-1", "type": "cell-based, Human", "details": "AsPC-1, 0.25 ug sDNA, 96 hours"}, "[4]": {"tested_on": "HMGA1 expression levels in AsPC-1 cells", "experiment": "Western blot of HMGA1 expression levels in AsPC-1 nuclear extracts", "type": "cell-based, Human", "details": "AsPC-1, 0.5 μg sDNA in six well plates, 48 hours", "experimental": "Cytoplasmic and nuclear protein extracts were prepared from pancreatic cancer cells using NE-PER extraction kit (Thermo Scientific, Rockford, Ill.). Protein concentrations were determined using a bicinchoninic acid assay with bovine serum albumin as a standard. Nuclear proteins that contained 25 or 15 μg total protein were separated by SDS-PAGE with a 4%-20% Criterion gradient gel (Bio-Rad Laboratories, Inc., Hercules, Calif.). The proteins were transferred to immuno-blot PVDF membrane (0.2 μm) (Bio-Rad Laboratories, Inc., Hercules, Calif.) and blocked in 5% dry milk in PBS supplemented with 0.2% Tween 20 (PBST). The PVDF membranes were then probed with 1:1000 dilution of rabbit anti-HMGA1 antibody (Santa Cruz Biotechnology Inc, Santa Cruz, Calif.) and 1:100 dilution of rabbit anti-HMGA2 antibody (Abcam plc, Cambridge, Mass.), in 3% BSA in PBST at 4° C. overnight. After three washes with PBST, the membrane was blotted with secondary antibody, ant-rabbit IgG-HRP (cell signaling) 1:5000 dilution in 1% dry milk in PBST at room temperature for 1 hour. An enhanced chemiluminescence detection (ECL, GE Healthcare Life Sciences, Piscataway, N.J.) system was used to detect target proteins. To ensure equal loading of the proteins between groups, membranes were re-probed with anti-TATA binding protein antibody (Abcam plc, Cambridge, Mass.). […] The control was nuclear extract from untreated cells. Triplicates of each sample were run on the gel and analyzed with the Alpha Imager. The relative HMGA1 densities were obtained by dividing HMGA 1 density by TBP density. […] TATA binding protein (TBP) was used as a loading control. […] HMGA1 expression levels were examined after transfection with CG-sDNA or AT-sDNA to determine if the transfection procedure affected HMGA1 expression levels. The AT-sDNA used for transfection contained an 18 adenine/thymine stretch enabling HMGA1 to bind the DNA with all three AT-hooks. As a negative control, a non-HMGA1-targeted sDNA containing an equal length of DNA but with no AT-stretches, i.e. CG-sDNA, was used. […]"}, "[5]": {"tested_on": "AsPC-1 cells", "experiment": "Cell growth with gemcitabine treatment after sDNA transfection, AsPC-1", "type": "cell-based, Human", "details": "AsPC-1, 0.1 ug sDNA, 96 hours", "experimental": "(§1) Cells were fixed after 96 hours and numbers of viable cells counted by measuring the absorbance at 570 nm.\n(§2) Cells were transfected with 0.1 μg of TC-sDNA, Mix-sDNA, CG-sDNA, and AT-sDNA."}, "[6]": {"tested_on": "AsPC-1 cells", "details": "for cell death: 96 h, compared to non-transfected cells; for cells dead compared to UT: versus untransfected (UT) cells; for Fold change in numbers of viable cells between TC and sDNA transfected cells (in parentheses) / Fold change in numbers of viable cells between UT and transfected cells: 96 h after transfection", "method": "AsPC-1 cells were grown in Roswell Park Memorial Institute medium supplemented with 10% FBS, and 1% penicillin-streptomycin.\nTransfections using sDNA at concentrations of 0.1 and 0.25 μg per well were conducted with 5×10^4 and 1×10^5 Miapaca-2 and AsPC-1 cells, respectively, in 24-well plates and all data were collected in quadruplicate. Miapaca-2 and AsPC-1 cells were transfected with sDNA using Lipofectamine 2000 (Invitrogen,™ Life Technologies Corporation, Carlsbad, Calif.) according to the manufacturer's protocol.\nBriefly, AsPC-1 cells grown in 10% FBS containing RPIM medium were trypsinized using a trypsin-EDTA solution commercially available from the Sigma-Aldrich, and used to seed fresh media in a 24-well plate with 10^5 cells per well.\nAfter 48 hours, the cells were transfected with the selected sDNA using Lipofectamine 2000 (Invitrogen,™ Life Technologies Corporation, Carlsbad, Calif.) according to the manufacturer's protocol. […] The cells were then fixed with 4% paraformaldehyde in PBS for 20 minutes and stained in 0.1% crystal violet stain (Sigma-Aldrich) for 30 minutes. The cells were washed under running tap water, air dried, and extracted with 0.2% Triton™ X-100 for 30 minutes. […] The absorbance of the Triton X-100 was measured at 570 nm using a HTS microplate reader. All results were analyzed for statistical significance using a student's unpaired t-test."}, "[7]": {"tested_on": "Miapaca-2 cells", "experiment": "Cell growth with gemcitabine treatment after sDNA transfection, Miapaca-2", "type": "cell-based, Human", "details": "96 hours; for Fold change in numbers of viable cells normalized relative to TC: Miapaca-2, 0.1 ug sDNA", "experimental": "as §1, §2"}}, "note": "Like-named read-outs stand apart in the source and are kept apart here. In the oligonucleotide strings, read from the 5' end, every base follows the letter of its sugar. An asterisk marks phosphorothioate; unmarked linkages are phosphodiester. Other units and linkages are bracketed, terminal groups are in braces. A string of capitals states the bases alone. d = 2'-deoxy (DNA)", "data": [{"substance": "CG-sDNA: CG-rich phosphorothioate DNA (SEQ ID NO: 12), negative control with no AT-stretches (DNA dC*dC*dC*dC*dG*dG*dG*dC*dC*dC*dC*dG*dG*dC*dC*dG*dG*dG*dC*dG*dC*dC*dG*dC)", "values": [{"measurement": "Fold change in numbers of viable cells normalized relative to TC", "setting": "[1]; Miapaca-2, 0.1 ug sDNA, Gemcitabine 1 nM", "value": 1.12, "unit": "fold"}, {"measurement": "Fold change in numbers of viable cells normalized relative to TC", "setting": "[1]; Miapaca-2, 0.25 ug sDNA, Gemcitabine 0 nM", "value": "−1.30", "unit": "fold"}, {"measurement": "Fold change in numbers of viable cells normalized relative to TC", "setting": "[1]; Miapaca-2, 0.25 ug sDNA, Gemcitabine 1 nM", "value": "−1.38", "unit": "fold"}, {"measurement": "Fold change in numbers of viable cells normalized relative to TC", "setting": "[1]; Miapaca-2, 0.25 ug sDNA, Gemcitabine 10 nM", "value": "−1.37", "unit": "fold"}, {"measurement": "Fold change in numbers of viable cells normalized relative to TC", "setting": "[1]; Miapaca-2, 0.25 ug sDNA, Gemcitabine 30 nM", "value": "−2.97", "unit": "fold"}, {"measurement": "Fold change in numbers of viable cells normalized relative to TC", "setting": "[1]; Miapaca-2, 0.25 ug sDNA, Gemcitabine 100 nM", "value": "−5.48", "unit": "fold"}, {"measurement": "Fold change in numbers of viable cells normalized relative to TC", "setting": "[1]; Miapaca-2, 0.25 ug sDNA, Gemcitabine 1000 nM", "value": "−4.11", "unit": "fold"}, {"measurement": "cells dead compared to UT", "setting": "[2]; Miapaca-2, 0.1 ug sDNA, 48 hrs", "value": 36.3, "unit": "%"}, {"measurement": "Fold change in numbers of viable cells between TC and sDNA transfected cells (in parentheses)", "setting": "[2]; Miapaca-2, 0.1 μg sDNA", "value": "(1.09) fold"}, {"measurement": "Fold change in numbers of viable cells between UT and transfected cells", "setting": "[2]; Miapaca-2, 0.1 μg sDNA", "value": "−1.43", "unit": "fold"}, {"measurement": "cells dead compared to UT", "setting": "[2]; Miapaca-2, 0.1 ug sDNA, 96 hrs", "value": 32.0, "unit": "%"}, {"measurement": "difference in cell viability between TC cells and sDNA transfected cells", "setting": "[2]; Miapaca-2, 0.1 ug sDNA, both 48 and 96 hours", "value": "no significant differences"}, {"measurement": "Fold change in numbers of viable cells between TC and sDNA transfected cells (in parentheses)", "setting": "[2]; Miapaca-2, 0.25 μg sDNA", "value": "(−1.30) fold"}, {"measurement": "Fold change in numbers of viable cells between UT and transfected cells", "setting": "[2]; Miapaca-2, 0.25 μg sDNA", "value": "−2.15", "unit": "fold"}, {"measurement": "Fold change in numbers of viable cells normalized relative to TC", "setting": "[3]; Gemcitabine 0 nM", "value": "−1.10", "unit": "fold"}, {"measurement": "Fold change in numbers of viable cells normalized relative to TC", "setting": "[3]; Gemcitabine 1 nM", "value": "−1.10", "unit": "fold"}, {"measurement": "Fold change in numbers of viable cells normalized relative to TC", "setting": "[3]; Gemcitabine 10 nM", "value": "−1.21", "unit": "fold"}, {"measurement": "Fold change in numbers of viable cells normalized relative to TC", "setting": "[3]; Gemcitabine 30 nM", "value": "−1.69", "unit": "fold"}, {"measurement": "Fold change in numbers of viable cells normalized relative to TC", "setting": "[3]; Gemcitabine 100 nM", "value": "−1.36", "unit": "fold"}, {"measurement": "Fold change in numbers of viable cells normalized relative to TC", "setting": "[3]; Gemcitabine 1000 nM", "value": "−2.16", "unit": "fold"}, {"measurement": "change in HMGA1 expression levels after sDNA transfection", "setting": "[4]", "value": "no changes"}, {"measurement": "Fold change in numbers of viable cells normalized relative to TC", "setting": "[5]; Gemcitabine 0 nM", "value": "−1.11", "unit": "fold"}, {"measurement": "Fold change in numbers of viable cells normalized relative to TC", "setting": "[5]; Gemcitabine 1 nM", "value": "−1.09", "unit": "fold"}, {"measurement": "Fold change in numbers of viable cells normalized relative to TC", "setting": "[5]; Gemcitabine 10 nM", "value": "−1.18", "unit": "fold"}, {"measurement": "Fold change in numbers of viable cells normalized relative to TC", "setting": "[5]; Gemcitabine 30 nM", "value": "−1.34", "unit": "fold"}, {"measurement": "Fold change in numbers of viable cells normalized relative to TC", "setting": "[5]; Gemcitabine 100 nM", "value": "−1.52", "unit": "fold"}, {"measurement": "Fold change in numbers of viable cells normalized relative to TC", "setting": "[5]; Gemcitabine 1000 nM", "value": "−1.67", "unit": "fold"}, {"measurement": "cell death", "setting": "[6]; AsPC-1, 0.1 μg sDNA per well", "value": 12, "unit": "%"}, {"measurement": "cells dead compared to UT", "setting": "[6]; AsPC-1, 0.1 ug sDNA, 48 hrs", "value": 33.8, "unit": "%"}, {"measurement": "Fold change in numbers of viable cells between TC and sDNA transfected cells (in parentheses)", "setting": "[6]; AsPC-1, 0.1 μg sDNA", "value": "(−1.11) fold"}, {"measurement": "Fold change in numbers of viable cells between UT and transfected cells", "setting": "[6]; AsPC-1, 0.1 μg sDNA", "value": "−1.20", "unit": "fold"}, {"measurement": "cells dead compared to TC", "setting": "[6]; AsPC-1, 0.1 μg sDNA, 96 hrs, versus transfection control (TC) cells", "value": 9.7, "unit": "%"}, {"measurement": "cells dead compared to UT", "setting": "[6]; AsPC-1, 0.1 ug sDNA, 96 hrs", "value": 14.3, "unit": "%"}, {"measurement": "difference in cell viability between TC cells and sDNA transfected cells", "setting": "[6]; AsPC-1, 0.1 ug sDNA, both 48 and 96 hours", "value": "no significant differences"}, {"measurement": "cell death", "setting": "[6]; AsPC-1, 0.25 μg sDNA per well", "value": 16, "unit": "%"}, {"measurement": "Fold change in numbers of viable cells between TC and sDNA transfected cells (in parentheses)", "setting": "[6]; AsPC-1, 0.25 μg sDNA", "value": "(−1.10) fold"}, {"measurement": "Fold change in numbers of viable cells between UT and transfected cells", "setting": "[6]; AsPC-1, 0.25 μg sDNA", "value": "−1.19", "unit": "fold"}, {"measurement": "cell death compared to TC", "setting": "[6]; AsPC-1, 0.25 μg sDNA, 96 hours, versus TC cells", "value": 9.0, "unit": "%"}, {"measurement": "cell death", "setting": "[6]; AsPC-1, 1.0 μg sDNA per well", "value": 60, "unit": "%"}, {"measurement": "cells dead compared to TC", "setting": "[6]; AsPC-1, 1.0 μg sDNA, 96 hours, versus TC cells", "value": 56.4, "unit": "%"}, {"measurement": "cells dead / change in cell viability", "setting": "[7]; Miapaca-2, 0.1 μg sDNA, 1 nM gemcitabine", "value": "no significant change"}, {"measurement": "cells surviving", "setting": "[7]; Miapaca-2, 0.1 μg sDNA, 10 nM gemcitabine, normalized to 0 nM gemcitabine", "value": 83.9, "unit": "%"}, {"measurement": "Fold change in numbers of viable cells normalized relative to TC", "setting": "[7]; Gemcitabine 0 nM", "value": 1.09, "unit": "fold"}, {"measurement": "Fold change in numbers of viable cells normalized relative to TC", "setting": "[7]; Gemcitabine 10 nM", "value": "−1.09", "unit": "fold"}, {"measurement": "Fold change in numbers of viable cells normalized relative to TC", "setting": "[7]; Gemcitabine 30 nM", "value": "−3.29", "unit": "fold"}, {"measurement": "Fold change in numbers of viable cells normalized relative to TC", "setting": "[7]; Gemcitabine 100 nM", "value": "−4.06", "unit": "fold"}, {"measurement": "Fold change in numbers of viable cells normalized relative to TC", "setting": "[7]; Gemcitabine 1000 nM", "value": "−4.24", "unit": "fold"}]}]}
